These results are taken from patent US9884818B2, “Sulphamoylpyrrolamide derivatives and the use thereof as medicaments for the treatment of hepatitis B” (Janssen Sciences Ireland UC, priority 2013, dated 2018).

For data set [1], the system named is HBV. The experiment in a line: Anti-HBV activity, HepG2.2.15 stable transfected cell line, HBV DNA from secreted virions by realtime PCR. It counts as cell-based. To be noted: Hepatitis B virus, HepG2.2.15, 144 h, HepG2.2.15 cells, 6 days of treatment, HBV DNA from secreted virions; read-out: HepG2 2.15 EC50.
Data set [2] deals with HBV. The experiment in a line: Anti-HBV activity, HepG2.117 inducibly HBV producing cell line (Tet-off), intracellular HBV DNA by realtime PCR. The following applies: Hepatitis B virus, HepG2.117, 72 h, HepG2.117 cells, 3 days of treatment, intracellular HBV DNA; read-out: HepG2 117 EC50. It counts as cell-based.
The nature of data set [3]: Cytotoxicity in HepG2 cells, Resazurin viability assay. To be noted: human, HepG2 cells, HepG2 4 days CC50 (μM), incubated for 4 days, Resazurin assay.

A value given as a limit tells only on which side of the number the result lay.

As a reminder, the EC50 is the midpoint of the concentration-response curve. As usually defined, the CC50 is the concentration at which the toxic effect on the cells reaches its halfway point. Read a low CC50 as greater toxicity to the cells. Take `Cn1cc(S(=O)(=O)NC(C)(C)C(F)(F)F)cc1C(=O)Nc1cc(F)c(F)c(Cl)c1` [Compound 96, N-(3-Chloro-4,5-difluorophenyl)-1-methyl-4-[(2,2,2-trifluoro-1,1-dimethylethyl)sulfamoyl]-1H-pyrrole-2-carboxamide]: the EC50 in the data set on HBV [1] came to 10 nM; in the data set with HBV [2] it was 30 nM. In data set [3], the CC50 at 4 days came to 23.7 µM.

As to `Cc1cc(NC(=O)c2cc(S(=O)(=O)N[C@H](C)CS(C)(=O)=O)cn2C)ccc1F` [Compound 97, N-(4-Fluoro-3-methylphenyl)-1-methyl-4-{[(1R)-1-methyl-2-(methyl-sulfonyl)ethyl]sulfamoyl}-1H-pyrrole-2-carboxamide], the EC50 in the data set on HBV [1] and in the data set on HBV [2] was 30 nM throughout. Also, the CC50 at 4 days in data set [3] is over 25 µM.

As for `Cn1cc(S(=O)(=O)NC(C)(C)C)cc1C(=O)Nc1ccc(F)c(OC(F)(F)F)c1` [Compound 98, 4-(tert-Butylsulfamoyl)-N-[4-fluoro-3-(trifluoromethoxy)phenyl]-1-methyl-1H-pyrrole-2-carboxamide], the EC50 came to 810 nM with HBV [1] and 540 nM with HBV [2]. In data set [3], this compound came in with a CC50 at 4 days of over 25 µM.

For `Cc1c(F)ccc(NC(=O)c2cc(S(=O)(=O)NC(C)C)cn2C)c1F` [Compound 99, N-(2,4-Difluoro-3-methylphenyl)-1-methyl-4-[(1-methylethyl)sulfamoyl]-1H-pyrrole-2-carboxamide], the EC50 with HBV [1] came out at 130 nM; in the data set with HBV [2], 100 nM. This compound also came in with a CC50 at 4 days in data set [3] of over 25 µM.

As to `C[C@H](NS(=O)(=O)c1cc(C(=O)Nc2cc(F)c(F)c(Br)c2)n(C)c1)C(F)(F)F` [Compound 100, N-(3-Bromo-4,5-difluorophenyl)-1-methyl-4-{[(1S)-2,2,2-trifluoro-1-methylethyl]sulfamoyl}-1H-pyrrole-2-carboxamide], the figures for the EC50 in the data set with HBV [1] and with HBV [2] were 60 nM and 50 nM, respectively. Also, the midpoint of cytotoxicity in data set [3], the CC50 at 4 days, lay at 12.2 µM.

Regarding `C[C@H](NS(=O)(=O)c1cc(C(=O)Nc2ccc(F)c(Br)c2)n(C)c1)C(F)(F)F` [Compound 101, N-(3-Bromo-4-fluorophenyl)-1-methyl-4-{[(1S)-2,2,2-trifluoro-1-methylethyl]sulfamoyl}-1H-pyrrole-2-carboxamide], the EC50 in the data set with HBV [1] and with HBV [2] was 30 nM throughout. The compound further yielded a CC50 at 4 days in data set [3] of over 25 µM.

`C[C@H](NS(=O)(=O)c1cc(C(=O)Nc2ccc(F)c(C#N)c2)n(C)c1)C(F)(F)F` [Compound 102, N-(3-Cyano-4-fluorophenyl)-1-methyl-4-{[(1S)-2,2,2-trifluoro-1-methylethyl]sulfamoyl}-1H-pyrrole-2-carboxamide]: the EC50 with HBV [1] and in the data set on HBV [2] was 60 nM throughout. The same compound had a CC50 at 4 days in data set [3] of over 25 µM.

Regarding `C[C@H](NS(=O)(=O)c1cc(C(=O)Nc2cc(F)c(F)c(Cl)c2)n(C)c1)C(F)(F)F` [Compound 103, N-(3-Chloro-4,5-difluorophenyl)-1-methyl-4-{[(1S)-2,2,2-trifluoro-1-methylethyl]sulfamoyl}-1H-pyrrole-2-carboxamide], the concentration giving a half-maximal response (EC50) with HBV [1] was 50 nM; with HBV [2], 20 nM. Moreover, in data set [3], the CC50 at 4 days was over 25 µM.

Take `Cc1cc(NC(=O)c2cc(S(=O)(=O)N[C@@H](C)C(F)(F)F)cn2C)cc(F)c1F` [Compound 104, N-(3,4-Difluoro-5-methylphenyl)-1-methyl-4-{[(1S)-2,2,2-trifluoro-1-methylethyl]sulfamoyl}-1H-pyrrole-2-carboxamide]: the EC50 in the data set on HBV [1] and with HBV [2] was 20 nM throughout. The compound further came in with a CC50 at 4 days in data set [3] of over 25 µM.

As to `C[C@H](NS(=O)(=O)c1cc(C(=O)Nc2ccc(F)c(Cl)c2)n(C)c1)C(F)(F)F` [Compound 105, N-(3-Chloro-4-fluorophenyl)-1-methyl-4-{[(1S)-2,2,2-trifluoro-1-methylethyl]sulfamoyl}-1H-pyrrole-2-carboxamide], the EC50 turned out to be 30 nM in the data set with HBV [1] and 20 nM in the data set with HBV [2]. The compound further yielded a CC50 at 4 days in data set [3] of over 25 µM.

For the compound `Cn1cc(S(=O)(=O)NC2(C)COC2)c(F)c1C(=O)Nc1ccc(F)c(Br)c1` [Compound 106, N-(3-Bromo-4-fluorophenyl)-3-fluoro-1-methyl-4-[(3-methyloxetan-3-yl)sulfamoyl]-1H-pyrrole-2-carboxamide], the EC50 with HBV [1] and in the data set with HBV [2] was 10 nM in each case. For the same compound, the 50% cytotoxic concentration (CC50) at 4 days in data set [3] is over 25 µM.

Turning to `Cn1cc(S(=O)(=O)NC2(C)COC2)c(F)c1C(=O)Nc1ccc(F)c(C(F)F)c1` [Compound 107, N-[3-(Difluoromethyl)-4-fluorophenyl]-3-fluoro-1-methyl-4-[(3-methyloxetan-3-yl)sulfamoyl]-1H-pyrrole-2-carboxamide], the EC50 in the data set with HBV [1] and with HBV [2] was 10 nM in each case. Besides, in data set [3], the CC50 at 4 days was over 25 µM.

Take `Cn1cc(S(=O)(=O)NC2(C)COC2)c(F)c1C(=O)Nc1cc(F)c(F)cc1F` [Compound 109, 3-Fluoro-1-methyl-4-[(3-methyloxetan-3-yl)sulfamoyl]-N-(2,4,5-trifluorophenyl)-1H-pyrrole-2-carboxamide]: the EC50 in the data set with HBV [1] was found to be 240 nM; in the data set on HBV [2] it was 100 nM. Besides, in data set [3], the CC50 at 4 days was over 25 µM.

Turning to `Cc1c(F)ccc(NC(=O)c2c(F)c(S(=O)(=O)NC3(C)COC3)cn2C)c1F` [Compound 110, N-(2,4-Difluoro-3-methylphenyl)-3-fluoro-1-methyl-4-[(3-methyloxetan-3-yl)sulfamoyl]-1H-pyrrole-2-carboxamide], the EC50 in the data set on HBV [1] was found to be 20 nM; with HBV [2], 30 nM. The same compound returned a CC50 at 4 days in data set [3] of over 25 µM.

Take `Cn1cc(S(=O)(=O)NC2(C)COC2)c(F)c1C(=O)Nc1cc(F)c(F)c(Cl)c1` [Compound 111, N-(3-Chloro-4,5-difluorophenyl)-3-fluoro-1-methyl-4-[(3-methyloxetan-3-yl)sulfamoyl]-1H-pyrrole-2-carboxamide]: the EC50 with HBV [1] and in the data set with HBV [2] was 7 nM each time. In data set [3], this compound gave a CC50 at 4 days of over 25 µM.

In the case of `Cc1c(F)ccc(NC(=O)c2cc(S(=O)(=O)NC(C)(C)C)cn2C)c1F` [Compound 112, 4-(tert-butylsulfamoyl)-N-(2,4-difluoro-3-methyl-phenyl)-1-methyl-pyrrole-2-carboxamide], the EC50 is 60 nM in the data set on HBV [1] and 90 nM in the data set with HBV [2]. This compound also yielded a CC50 at 4 days in data set [3] of over 25 µM.

With `Cn1cc(S(=O)(=O)NC2(C)COC2)c(F)c1C(=O)Nc1ccc(F)c(C#N)c1` [Compound 113, N-(3-cyano-4-fluoro-phenyl)-3-fluoro-1-methyl-4-[(3-methyloxetan-3-yl)sulfamoyl]pyrrole-2-carboxamide], the EC50 with HBV [1] turned out to be 30 nM; with HBV [2] it was 20 nM. The compound also displayed a CC50 at 4 days in data set [3] of over 25 µM.

`Cn1cc(S(=O)(=O)NC2(C(N)=O)CC2)cc1C(=O)Nc1cc(F)c(F)c(Cl)c1` [Compound 114, 4-[(1-Carbamoylcyclopropyl)sulfamoyl]-N-(3-chloro-4,5-difluorophenyl)-1-methyl-1H-pyrrole-2-carboxamide]: the EC50 in the data set on HBV [1] was found to be 100 nM; in the data set with HBV [2], 50 nM. In data set [3], this compound displayed a CC50 at 4 days of over 25 µM.

With `CNC(=O)C1(NS(=O)(=O)c2cc(C(=O)Nc3cc(F)c(F)c(Cl)c3)n(C)c2)CC1` [Compound 115, N-(3-Chloro-4,5-difluorophenyl)-1-methyl-4-{[1-(methylcarbamoyl)cyclopropyl]sulfamoyl}-1H-pyrrole-2-carboxamide], the EC50 with HBV [1] came out at 300 nM; in the data set with HBV [2], 110 nM. In data set [3], this compound had a CC50 at 4 days of over 25 µM.

For the compound `Cc1c(F)ccc(NC(=O)c2cc(S(=O)(=O)N[C@H](C)C(F)(F)F)cn2C)c1F` [Compound 116, N-(2,4-Difluoro-3-methylphenyl)-1-methyl-4-{[(1R)-2,2,2-trifluoro-1-methylethyl]sulfamoyl}-1H-pyrrole-2-carboxamide], the EC50 with HBV [1] was 30 nM; in the data set with HBV [2], 20 nM. In data set [3], this compound returned a CC50 at 4 days of over 25 µM.

Regarding `Cc1c(F)ccc(NC(=O)c2cc(S(=O)(=O)NC3(C(F)(F)F)CC3)cn2C)c1F` [Compound 117, N-(2,4-Difluoro-3-methylphenyl)-1-methyl-4-{[1-(trifluoromethyl)-cyclopropyl]sulfamoyl}-1H-pyrrole-2-carboxamide], the EC50 with HBV [1] was found to be 7 nM; in the data set with HBV [2] it was 10 nM. The CC50 at 4 days in data set [3] was over 25 µM.

Regarding `Cc1c(F)ccc(NC(=O)c2cc(S(=O)(=O)NC(C)(C)C(F)(F)F)cn2C)c1F` [Compound 118, N-(2,4-Difluoro-3-methylphenyl)-1-methyl-4-[(2,2,2-trifluoro-1,1-dimethylethyl)sulfamoyl]-1H-pyrrole-2-carboxamide], the EC50 in the data set on HBV [1] is 50 nM; in the data set with HBV [2], 20 nM. Further, the CC50 at 4 days in data set [3] was over 25 µM.

In the case of `Cc1c(F)ccc(NC(=O)c2cc(S(=O)(=O)N[C@@H](C)C(F)(F)F)cn2C)c1F` [Compound 119, N-(2,4-Difluoro-3-methylphenyl)-1-methyl-4-{[(1S)-2,2,2-trifluoro-1-methylethyl]sulfamoyl}-1H-pyrrole-2-carboxamide], the values for the EC50 with HBV [1] and in the data set with HBV [2] were 30 nM and 10 nM, respectively. This compound gave a CC50 at 4 days in data set [3] of over 25 µM.

Regarding `C[C@@H](NS(=O)(=O)c1cc(C(=O)Nc2ccc(F)c(Cl)c2F)n(C)c1)C(F)(F)F` [Compound 120, N-(3-Chloro-2,4-difluorophenyl)-1-methyl-4-{[(1R)-2,2,2-trifluoro-1-methylethyl]sulfamoyl}-1H-pyrrole-2-carboxamide], the EC50 in the data set with HBV [1] and with HBV [2] was 30 nM in each case. In data set [3], this compound yielded a CC50 at 4 days of over 25 µM.

With `Cn1cc(S(=O)(=O)NC2(C)COC2)cc1C(=O)Nc1ccc(F)c(Cl)c1F` [Compound 121, N-(3-Chloro-2,4-difluorophenyl)-1-methyl-4-[(3-methyloxetan-3-yl)sulfamoyl]-1H-pyrrole-2-carboxamide], the figures for the EC50 in the data set with HBV [1] and with HBV [2] were 50 nM and 40 nM, respectively. Besides, the CC50 at 4 days in data set [3] was over 25 µM.
